From EPA's ToxValDB 9.5 (doi:10.2903/j.efsa.2014.3692)
Values after ≈ are worked out from the molar mass of the structure shown.

What was measured:
Colinus virginianus = conditions: for LD50: acute, oral, mortality
Rattus norvegicus = conditions: for LD50: acute, mortality
Apis mellifera = conditions: acute, mortality
Bibionidae = conditions: chronic/long-term; duration: 28 days
Canidae = conditions: reproduction developmental; duration: 90 days; Dog Other; mortality
Chironomus tentans = conditions: acute, mortality
Cyprinodon variegatus = conditions: mortality
Mus musculus = conditions: acute; oral; mortality

## CC(O)c1ccc(C(F)(F)F)nc1 (centres undefined) [1-(6-(Trifluoromethyl)pyridin-3-yl)ethanol]
Colinus virginianus
  LD50: 1040 mg/kg
Rattus norvegicus
  LD50: 2000 mg/kg

## CC(c1ccc(C(F)(F)F)nc1)S(C)(=O)=NC#N (centres undefined) [Sulfoxaflor]
Anas platyrhynchos; reproductive, reproduction
  NOAEL: 25.9 mg/kg-day
Anas platyrhynchos; short-term, oral, feed, mortality
  LD50: > 1050 mg/kg-day
Apis mellifera; duration: 48 hours, oral, unspecified
  LD50: 0.146 µg/piece
Apis mellifera; duration: 72 hours, dermal
  LD50: 0.379 µg/piece
Bibionidae
  NOEC: 0.0384 mg/L
Canidae
  NOAEL: 6.63 mg/kg-day
Chironomus tentans; duration: 96 hours
  LC50: 0.622 µg/mL (≈ 2.24 µM)
Chironomus tentans; duration: 10 days
  LC50: 0.119 mg/kg
Colinus virginianus; diet
  LD50: > 1150 mg/kg-day
Colinus virginianus
  LD50: 676 mg/kg
Colinus virginianus; reproduction developmental, reproduction
  NOAEL: 84.4 mg/kg-day
Cyprinodon variegatus; acute, duration: 96 hours
  LC50: 266 µg/mL (≈ 959 µM)
Cyprinodon variegatus; chronic/long-term, duration: 38 days
  NOEC: 1.21 mg/L
Mus musculus
  LD50: 750 mg/kg
Neomysis kadiakensis; acute, duration: 96 hours, mortality
  LC50: 0.643 µg/mL (≈ 2.32 µM)
Neomysis kadiakensis; chronic/long-term, duration: 28 days, reproduction
  NOEC: 0.114 mg/L
Rattus norvegicus; oral
  LD50: 1000 mg/kg
Rattus norvegicus; chronic, duration: 2 years, other
  NOAEL: 4.24 mg/kg-day
Rattus norvegicus; repeat dose other, neurology
  NOAEL: 25 mg/kg-day
Rattus norvegicus; subchronic, duration: 90 days, oral, histopathology: nonneoplastic
  NOAEL: 6.36 mg/kg-day
Tagia sp.; acute, duration: 14 days, mortality
  LC50: 0.885 mg/kg
Tagia sp.; chronic/long-term, duration: 8 weeks
  NOEC: 0.1 mg/kg
